{"source": "patent US20260158016A1", "about": "“HALOPERIDOL DERIVATIVES, PHARMACEUTICAL COMPOSITION COMPRISING SAID DERIVATIVES, AND THERAPEUTIC USES THEREOF” (University of Virginia Patent Foundation, priority 2023, published 2026)", "key": {"[1]": {"test_system": "Alu RNA-induced RPE degeneration", "assay": "Alu RNA-induced RPE degeneration in mice (ZO-1 stained RPE flat mounts)", "assay_type": "in vivo, C57BL/6J mice", "protocol": "C57BL/6J mice (The Jackson Laboratory) were anesthetized with ketamine hydrochloride and xylazine. In vitro-transcribed Alu RNA (300 ng in 1 μL) was injected subretinally to induce RPE degeneration (Kaneko, 2011). Various doses of haloperidol (Sigma Aldrich; 1-500 ng in 0.5 μL) or PBS (vehicle) was injected into the vitreous humor 24 h before and immediately after Alu RNA injection. Alternatively, various doses of haloperidol (2-10 μg) were administered via intraperitoneal administration on days 1 through 6 after Alu RNA injection. Animals were euthanized 7 days after Alu RNA injection, and the eyes were enucleated.\nRPE health was assessed by immunofluorescence staining of zonula occludens-1 (ZO-1) on RPE flat mounts. Flat mounts were fixed with 2% PFA, stained with rabbit polyclonal antibodies against mouse ZO-1 (Invitrogen), visualized with Alexa Fluor 594 (Invitrogen), and imaged (A1R Nikon). Images were graded as healthy or degenerated in masked fashion as previously described (Kerur, 2018). Proportions of eyes with degeneration were compared using Fisher's exact test."}, "dry AMD": {"test_system": "dry AMD", "assay": "Health insurance claims database analysis (PearlDiver Mariner): risk of developing dry AMD by haloperidol exposure", "assay_type": "in vivo, human", "settings": "for Hazard Ratio of developing dry AMD (adjusted hazard ratio): adjusted Cox proportional hazards regression, propensity-score-matched, patients with schizophrenia or Tourette's disorder aged 50 or older", "description": "The retrospective study used claims data from the PearlDiver Mariner database, which contains data on health care claims and medication usage for persons in provider networks over the time period 2010 to the second quarter of 2018.\nPatients were included in the analysis if they had continuous enrollment in the plan for at least 1 year and were at least 50 years of age at baseline. Individuals with pre-existing dry AMD (≥1 medical claims prior to diagnosis of schizophrenia or Tourette's disorder) were excluded. Disease claims were identified by International Classification of Diseases (ICD)-9-CM and ICD-10-CM codes.\nExposure to haloperidol—the independent variable—was determined by whether patients filled ≥1 outpatient pharmacy prescriptions for generic or brand versions, either in sole form or as a combination medication, as identified by National Drug Codes.\nTime to initial diagnosis of dry AMD was the dependent variable.\nAnalyses were performed with the use of R software, version 4.2.2 (the R project (www.r-project.org)). To analyze the risk of dry AMD between haloperidol users and haloperidol non-users, an adjusted Cox proportional hazards regression analysis was performed, and the hazard ratio was analyzed by the likelihood ratio test. […] This adjusted model included confounding covariates that influence dry AMD risk: age, sex, smoking, body mass index, and Charlson comorbidity index. Kaplan-Meier survival plots were analyzed by log rank test. Statistical tests were 2-sided. P values <0.05 were considered statistically significant.\nTo evaluate the robustness of the findings and mitigate any possible residual confounding, we estimated propensity-score models including use of haloperidol and no use of haloperidol. The individual propensities for starting haloperidol treatment were estimated with the use of logistic regression. […] We used the R package MatchIt to perform matching in a 1:1 ratio using greedy nearest neighbor matching. In addition, to control for any residual covariate imbalance, we estimated the relative hazard in the propensity score-matched groups using the multivariable Cox models that included the covariates from the multivariable regression analysis employed for the original unmatched group analyses. Statistical tests were two-sided. P values <0.05 were considered statistically significant.\nWe performed a retrospective, longitudinal cohort analysis in the PearlDiver Mariner database (comprising 150 million Americans from 2010 to 2018) among patients with schizophrenia or Tourette's disorder (the population that would be exposed to haloperidol or other anti-psychotics) aged 50 or older (the population at risk) to assess the risk of dry AMD."}, "[2]": {"settings": "patients taking haloperidol (Coryell, 1998); cited from earlier work"}, "[3]": {"test_system": "IL-1β secretion by THP-1 cells", "assay": "Inflammasome activation: IL-1β secretion ELISA in LPS and ATP stimulated THP-1 cells", "assay_type": "cell-based, human", "settings": "LPS 125 ng/ml 4 h + ATP 5 mM 30 min, haloperidol pretreatment 1 h, P<0.05 vs vehicle", "protocol": "Human THP-1 cells were stimulated with LPS (125 ng/ml) for 4 h and ATP (5 mM) for 30 min. For all experiments, cells were pretreated with haloperidol (1, 10, or 100 μM) for 1 h and again after the activating stimuli. Secreted human […] in the conditioned cell culture media was detected using an ELISA kit (R&D Systems) according to the manufacturer's instructions. Mean and SEM values are presented.\nHaloperidol was tested for inhibition of inflammasome activation. Inflammasome activation was assessed in human THP-1 monocytes by measuring IL-1ß secretion via ELISA."}}, "note": "“Also recorded” adds a separate entry of the source.", "data": [{"smiles": "O=C(CCCN1CCC(O)(c2ccc(Cl)cc2)CC1)c1ccc(F)cc1", "note": "[haloperidol]", "values": [{"measurement": "eyes protected against RPE degeneration", "setting": "[1]; 5 ng haloperidol intravitreous, 24 h before and immediately after subretinal Alu RNA, assessed day 7", "result": 70, "unit": "%"}, {"measurement": "protection against RPE degeneration", "setting": "[1]; daily intraperitoneal injection at 2 μg, 5 μg, or 10 μg, days 1 through 6 after Alu RNA", "result": "70-80%"}, {"measurement": "dose with maximal protective effect against RPE degeneration", "setting": "[1]; intravitreous dose-ranging 1 ng to 500 ng", "result": 5, "unit": "ng"}, {"measurement": "Alu RNA-induced RPE degeneration (qualitative)", "setting": "[1]; subretinal Alu RNA, intravitreous or intraperitoneal haloperidol (FIG. 3)", "result": "blocked"}, {"measurement": "rate of developing dry AMD (Kaplan-Meier survival analysis)", "setting": "dry AMD; Mariner database, log-rank test P<0.001", "result": "significantly slower rate"}, {"measurement": "Hazard Ratio of developing dry AMD (adjusted hazard ratio)", "setting": "dry AMD; Mariner database", "result": 0.747}, {"measurement": "Hazard Ratio of developing dry AMD (adjusted hazard ratio)", "setting": "dry AMD; Mariner database, listed as Haloperidol", "result": 0.7468}, {"measurement": "reduced hazard of developing dry AMD", "setting": "dry AMD; haloperidol exposure vs nonexposure, Mariner, adjusted Cox model", "result": 25, "unit": "%"}, {"measurement": "serum concentration", "setting": "[2]", "result": "exceeding 20 ng/ml"}, {"measurement": "IL-1β secretion (inflammasome activation)", "setting": "[3]", "result": "reduced; also recorded: inhibits"}]}]}
